Data from patent US11191773B2, “Methods of treatment for bacterial infections” (President and Fellows of Harvard College, priority 2017, dated 2021).

Legend:
[1] = system: polymyxin-resistant K. pneumoniae (clinical isolate from Brigham and Women's Hospital); format: cell-based; conditions: 37° C. for 24 h
Method: The effect of novobiocin/polymyxin combination was further assessed in polymyxin-resistant strains using checkerboard microdilution assays. In these assays, polymyxin-resistant strains (E. coli (clinical isolate from Brigham and Women's Hospital); A. baumannii (ATCC: 19606) mutant that is novobiocin and polymyxin-resistant; and K. pneumoniae (clinical isolate from Brigham and Women's Hospital)) were grown at 37° C. for 24 h.

[2] = target: T1, wild-type LptB2FGC complexes (Escherichia coli, UniProt P0A9V1); test: LPS-release assay, right-side-out vesicles to LptA*; format: biochemical, E. coli
T1 construct: made in house; host or cells: right-side-out membrane vesicles from E. coli BL-21(λDE3) overexpressing the complex
T1 sequence (P0AF98 whole entry): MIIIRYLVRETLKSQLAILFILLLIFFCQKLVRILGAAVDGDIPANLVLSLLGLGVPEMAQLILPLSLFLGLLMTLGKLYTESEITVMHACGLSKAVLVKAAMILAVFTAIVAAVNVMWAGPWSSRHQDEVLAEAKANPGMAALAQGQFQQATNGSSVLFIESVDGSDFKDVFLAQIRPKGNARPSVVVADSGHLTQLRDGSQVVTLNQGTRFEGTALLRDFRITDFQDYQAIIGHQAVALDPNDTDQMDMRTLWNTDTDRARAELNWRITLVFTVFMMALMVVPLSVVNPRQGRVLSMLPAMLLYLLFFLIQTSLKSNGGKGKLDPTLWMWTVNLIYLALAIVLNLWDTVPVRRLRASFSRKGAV
T1 sequence (P0ADV9 whole entry, further chain): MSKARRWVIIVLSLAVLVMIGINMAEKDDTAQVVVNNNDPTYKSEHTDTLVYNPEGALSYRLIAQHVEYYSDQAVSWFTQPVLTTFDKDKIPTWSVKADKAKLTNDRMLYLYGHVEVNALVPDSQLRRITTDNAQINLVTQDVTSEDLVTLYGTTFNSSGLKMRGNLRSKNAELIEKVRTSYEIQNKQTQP
T1 sequence (P0ADC6 whole entry, further chain): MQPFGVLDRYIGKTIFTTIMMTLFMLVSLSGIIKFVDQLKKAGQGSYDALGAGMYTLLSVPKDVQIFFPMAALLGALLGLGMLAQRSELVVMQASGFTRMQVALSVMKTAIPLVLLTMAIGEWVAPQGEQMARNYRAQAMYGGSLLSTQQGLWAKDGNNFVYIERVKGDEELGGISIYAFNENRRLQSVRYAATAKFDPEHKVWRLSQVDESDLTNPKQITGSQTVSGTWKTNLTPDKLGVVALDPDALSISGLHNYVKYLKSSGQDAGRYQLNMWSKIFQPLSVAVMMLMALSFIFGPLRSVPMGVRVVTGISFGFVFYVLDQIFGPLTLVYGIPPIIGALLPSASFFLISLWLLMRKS
T1 sequence (P0A9V1 2-241): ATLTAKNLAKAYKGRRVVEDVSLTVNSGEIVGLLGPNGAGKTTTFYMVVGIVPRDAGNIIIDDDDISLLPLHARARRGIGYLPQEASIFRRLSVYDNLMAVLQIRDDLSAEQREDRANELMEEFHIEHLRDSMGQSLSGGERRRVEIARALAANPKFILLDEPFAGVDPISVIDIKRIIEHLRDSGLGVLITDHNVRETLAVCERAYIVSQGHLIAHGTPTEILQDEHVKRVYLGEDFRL
Method: (§1) FIG. 9A is a schematic drawing showing the assay to monitor LPS release from right-side-out vesicles to LptA* (LptA(I36pBPA)). Vesicles containing overexpressed wild-type or mutant LptB2FGC complexes were incubated with LptA* and ATP at 30° C. to initiate LPS extraction and transport from the vesicles to LptA*. Samples were taken at different time points and UV-irradiated to crosslink LPS to LptA*, and accumulation of LPS-LptA* adducts was detected using LPS immunoblots.
FIG. 9D is a picture of an immunoblot showing that novobiocin and derivatives with impaired gyrase activities stimulate LPS transport in E. coli in vitro. […] Samples were UV irradiated at 365 nm for 5 minutes and then quenched with 2X SDS/5% β-mercaptoethanol. Samples were immunoblotted.
(§2) The assay detects via immunoblot LPS that becomes crosslinked to LptA* in the presence of UV light. […] By comparison, vesicles containing LptB2LptFG(ch)C complexes released less LPS over time (FIG. 9B, lanes 5-8). These experiments provide direct evidence that the amino acid changes in LptFG(ch), which were known to affect complex formation with LptB, impair LPS release. […] These compounds also increase LPS release from vesicles containing wild-type LptB2FGC complexes or LptB(R91 S)2FGC complexes (FIG. 17).
Samples were UV irradiated at 365 nm for 5 minutes and then quenched with 2X SDS/5% β-mercaptoethanol. Samples were immunoblotted.
The in vitro LPS-transport experiments in FIGS. 9B, 9C, and 17 were set-up as described in (Okuda et al. Science 2012, 338, 1214-1217) with some modifications. RSO-vesicles (50 μg total protein) were diluted into 100 μL reaction buffer (10% v/v glycerol, 20 mM Tris (pH 8.0), 150 mM NaCl, 5 mM sodium-ATP, 5 mM MgCl2), and incubated on ice with novobiocin, 1-adamantyl-novobiocin, or no compound for 15 minutes (50× compound stocks in water were used for each concentration). […]
(§3) Immunoblotting was used to assess LptA*-LPS levels in each sample. […] LptA levels were assessed similarly, using rabbit anti-LptA antiserum followed by donkey anti-rabbit horseradish peroxidase conjugate (GE Amersham). […]

[3] = system: wild-type A. baumannii; test: Checkerboard microdilution assay with PMB, PMBN, novobiocin, novobiocin aglycone; format: cell-based
[4] = target: T2, LptB2LptFG(ch)C complexes (Escherichia coli, UniProt P0A9V1); test: LPS-release assay, right-side-out vesicles to LptA*; format: biochemical, E. coli; conditions: 30° C. (FIG. 9C)
T2 construct: made in house; host or cells: right-side-out membrane vesicles from E. coli BL-21(λDE3) overexpressing the complex
T2 sequence (P0AF98 whole entry E84A): as the sequence (P0AF98 whole entry) above, with E84A counted along it
T2 sequence (P0ADC6 whole entry E88A, further chain): as the sequence (P0ADC6 whole entry, further chain) above, with E88A counted along it
T2 sequence (P0A9V1 2-241): as the sequence (P0A9V1 2-241) above
T2 sequence (P0ADV9 whole entry, further chain): as the sequence (P0ADV9 whole entry, further chain) above
Method: as §1, §2
The in vitro LPS-transport experiments in FIGS. 9B, 9C, and 17 were set-up as described in (Okuda et al. Science 2012, 338, 1214-1217) with some modifications. […]
as §3

[5] = system: K. pneumoniae, A. baumannii, P. aeruginosa, E. coli; test: Log(CFU/mL) vs. time curves (FIG. 3); format: cell-based; conditions: Novobiocin 50-130 μg/mL, Polymyxin B 1.4-2.0 μg/mL
Method: FIGS. 3A-3D are a set of plots of colony forming units/ml (CFU/ml) over time when untreated, or treated with polymyxin B, novobiocin, or a combination of both. FIG. 3A is a growth curve of Klebsiella pneumoniae. FIG. 3B is a growth curve of Acinetobacter baumannii Novo^R. FIG. 3C is a plot of CFU/ml over time of Pseudomonas aeruginosa. FIG. 3D is a growth curve of Escherichia coli.
Log(CFU/mL) vs. time curves. Overnight cultures were diluted 1:100 and grown at 37° C., 220 rpm until OD600=0.1. This culture was transferred to four sterile 5 mL tubes and treated with polymyxin B, novobiocin, polymyxin B+novobiocin, or no drug and incubated at 37° C., 220 rpm. At each timepoint, 10 μL from each condition was log10 diluted to 10^−7 and subsequently plated on LB Miller agar containing no antibiotic. Time=0 h represents the CFU/mL count immediately after the initial treatment. Y-values of zero indicate fewer than 10,000 CFUs (limit of detection). Strains are identical to those used in FIG. 1. K. pneumoniae: [Novobiocin]=130 μg/mL, [Polymyxin B]=1.4 μg/mL; A. baumannii: [Novobiocin]=100 μg/mL, [Polymyxin B]=2.0 μg/mL; P. aeruginosa: [Novobiocin]=100 μg/mL, [Polymyxin B]=2.0 μg/mL; E. coli: [Novobiocin]=50 μg/mL, [Polymyxin B]=2.0 μg/mL.

CO[C@@H]1[C@@H](OC(N)=O)[C@@H](O)[C@H](Oc2ccc3c(O)c(NC(=O)c4ccc(O)c(CC=C(C)C)c4)c(=O)oc3c2C)OC1(C)C [Novobiocin, novobiocin]
synergy with polymyxin B [1]: synergizes with polymyxin B
LPS transport in vitro ([2]; overexpressed LptB2FGC vesicles, 30° C. for 1 hour (FIG. 9D, 9E)): stimulate LPS transport in vitro
LPS release from vesicles to LptA* ([2]; wild-type LptB2FGC or LptB(R91 S)2FGC vesicles (FIG. 17)): stimulates LPS release
synergy with PMBN [3]: exhibits synergy
LPS release from vesicles to LptA* [4]: stimulate LPS release from the LptB2LptFG(ch)C vesicles in a concentration dependent manner
killing by combination with polymyxin B, CFU/mL over time [5]: synergy is bactericidal
